Test results as given in patent US20210023089A1, “Compositions Useful for Treating Herpes Simplex Keratitis, and Methods Using Same” (priority 2013, published 2021).

Legend:
HSV-1 [1] = assay: Plaque assay of supernatants from HSV-1 infected hTCEpi cells; format: cell-based, HSV-1 (KOS strain)
Experimental: (§1) All cells were cultured at 37° C. and 5% CO2 and supplemented with 100 U/mL penicillin and […]. Human corneal epithelial cells immortalized with hTERT (hTCEpi; Robertson, et al., 2005, Invest Ophthalmol Vis Sci. 46:470-478) were grown in complete keratinocyte growth medium 2 (KGM-2; Lonza, Basel, Switzerland). African green monkey kidney fibroblasts (CV-1; American Type Culture Collection, Manassas, Va.) were grown in Dulbecco's modified Eagle's medium (DMEM; Cellgro, Manassas, Va.) supplemented with 10% FBS. The KOS strain of HSV-1 was used in the in vitro and ex vivo infections, whereas McKrae strain was used for in vivo mouse experiments, and TK mutant dlsptk strain (Coen et al., 1989, Proc Natl Acad Sci USA 86:4736-4740) was used in the drug resistance experiments. All viral stocks were titered on CV-1 monolayers.
(§2) The following strains of HSV-1 were used: KOS, ICPO-null, HFEM, and tsB7. Subconfluent monolayers of cells were grown in six-well plates. Drug treatments were administered 45 minutes prior to infection and continued for the entire duration of each experiment. Unless indicated otherwise, KU-55933 (Batch No. 5, 99.7% purity; Tocris Bioscience, Bristol, UK) was used at 10 μM final concentration, phosphonoacetic acid (PAA) at 400 μg/mL (Sigma-Aldrich, St. Louis, Mo.), and acyclovir at 50 μg/mL (Sigma-Aldrich). […]

HSV-1 [2] = assay: qPCR of viral genome replication in HSV-1 infected hTCEpi cells; format: cell-based, HSV-1 (KOS strain); settings: for viral genome replication (qPCR): MOI 0.1, inhibitor 10 μM
Experimental: The following strains of HSV-1 were used: KOS, ICPO-null, HFEM, and tsB7. Subconfluent monolayers of cells were grown in six-well plates. Drug treatments were administered 45 minutes prior to infection and continued for the entire duration of each experiment. Unless indicated otherwise, KU-55933 (Batch No. 5, 99.7% purity; Tocris Bioscience, Bristol, UK) was used at 10 μM final concentration, phosphonoacetic acid (PAA) at 400 μg/mL (Sigma-Aldrich, St. Louis, Mo.), and acyclovir at 50 μg/mL (Sigma-Aldrich). KU-55933 was dissolved in dimethyl sulfoxide (DMSO), and the final concentration of DMSO in both KU-55933 and mock treatment in the in vitro and the ex vivo experiments was 0.1%.
Infections with KOS strain of HSV-1 were carried out in six-well plates in a 200 μL inoculum volume at 37° C. for 1 hour with intermittent rocking. The cells were then rinsed and overlaid with fresh medium.
Viral genome replication and transcription were measured by quantitative PCR (qPCR). Total DNA and RNA from infected cells were isolated using the DNeasy Blood & Tissue Kit and the RNeasy Mini Kit, respectively (QIAGEN, Hilden, Germany). RNA was converted to cDNA using qScript (Quanta BioSciences, Gaithersburg, Md.). Real-time qPCR was performed with SYBR Green (Bio-Rad, Hercules, Calif.). Target primers for UL30 (DNA polymerase catalytic subunit) and reference primers for glyceraldehyde 3-phosphate dehydrogenase (GAPDH) were used to measure genome replication. Transcription of the three gene families was measured with primers for RL2 (ICPO), UL30 (DNA polymerase catalytic subunit), and UL44 (gC), with reference primers for the 18S ribosomal RNA (rRNA).
Cells were grown in 6-well plates and used in experiments at −80% confluence. Drug treatments were administered 45 min prior to infection and continued for the entire duration of each experiment. Unless indicated otherwise, Chk2 inhibitor II (>98% purity by HPLC) was used at 10 μM final concentration, and phosphonoacetic acid (PAA) at 400 μg/ml (both from Sigma-Aldrich, St. Louis, Mo.). Chk2 inhibitor II was dissolved in DMSO such that the final concentration of DMSO in both Chk2 inhibitor II and mock treatment was 0.1%. Infections with KOS strain of HSV-1 were carried out in 6-well plates in a 200 μl inoculum volume at 37° C. for 1 hour with intermittent rocking. The cells were then thoroughly rinsed and overlaid with fresh medium.
Total DNA from infected cells and corneas was isolated using the DNeasy Blood & Tissue Kit (QIAGEN, Hilden, Germany). Real time quantitative PCR was performed with SYBR Green (Bio-Rad, Hercules, Calif.). Target primers for UL30 (DNA polymerase catalytic subunit) and reference primers for GAPDH were used to measure viral genome abundance. Primer sequences were based on the KOS genome (accession #JQ673480.1).

HSV-1 [3] = assay: HSV-1 cytopathic effect in infected hTCEpi cells (phase contrast); format: cell-based, HSV-1 (KOS strain); settings: MOI 0.1, inhibitor 10 μM, 20 hpi
Experimental: as §1, §2

human corneas = format: cell-based
Experimental: Human corneas were obtained from the Lions Eye Bank of Delaware Valley. Rabbit corneas were excised from intact fresh eyeballs of young (8-12 weeks) albino rabbits (Pel-Freez Biologicals, Rogers, Ark.). Protocol (Alekseev et al., 2012, J Vis Exp 69:e3631) for ex vivo corneal culture, infection, and treatment was followed closely. Briefly, corneoscleral buttons were excised and rinsed in PBS containing 200 U/mL penicillin and 200 μg/mL streptomycin. The endothelial concavity was filled with culture medium containing 1% low melting temperature agarose. The corneas were cultured epithelial side up in MEM medium supplemented with nonessential amino acids (1×), 2 mM […], 200 U/mL penicillin, and 200 μg/mL streptomycin. The next day, they were infected with 1×10^4 plaque forming units (PFU)/cornea of strain KOS HSV-1 for 1 hour, rinsed, and overlaid with fresh medium. Drug treatments were administered at the same concentrations as for cultured cells. For KU-55933 bioavailability assessment, corneas were treated with bleomycin (200 μg/mL) for 1 hour. The epithelial cell layer was collected by scraping to isolate DNA or protein. […] Treatment toxicity was assessed by briefly staining the cornea with fluorescein (1% wt/vol in PBS) and imaging the epithelial defects with 464-nm wavelength blue light (LDP LLC, Carlstadt, N.J.).

hTCEpi cells = assay: Colony survival assay; format: cell-based, human
Experimental: hTCEpi cells were treated with KU-55933 (10 μM) or DMSO for 24 hours, trypsinized, counted, and plated into 6-cm dishes at 50 cells/dish. After 2 weeks, colonies were fixed with 10% buffered formalin, stained with 0.01% crystal violet, rinsed, and counted.

McKrae strain HSV-1 = assay: Mouse model of ocular HSV-1 keratitis, disease scoring; format: in vivo, C57BL/6J mice; settings: 200 μM topical
Experimental: Four-week-old female C57BL/6J mice were anesthetized with isoflurane, and their left eyes were scarified in a 4×4 crosshatch pattern with a 28-gauge needle. […] strain HSV-1 was applied in 1 μL inoculum volume at 8×10^5 PFU/eye and the eyelid gently massaged. The infection was allowed to develop for 24 hours, at which point treatments were initiated. KU-55933 was delivered to the corneas dissolved in PBS to a concentration of 200 μM. Control treatments constituted an equivalent amount of DMSO (0.2% vol/vol) in PBS drops. Treatments were administered every 4 hours for 1 full day and then every 8 hours for the remainder of the experiment. Ocular disease severity was assessed at every 24-hour period postinfection. Two disease parameters were scored based on a number scale (Jose et al., 2013, Invest Ophthalmol Vis Sci 54:1070-1079). Briefly, stromal keratitis was scored as 1+, cloudiness, some iris detail visible; 2+, iris detail obscured; 3+, cornea totally opaque; and 4+, corneal perforation. Blepharitis was scored as 1+, puffy eyelids; 2+, puffy eyelids with some crusting; 3+, eye swollen shut with severe crusting; and 4+, eye completely swollen shut and crusted over.

Structure (SMILES)	generation of infectious viral particles (plaque assay) (HSV-1 [1]; MOI 0.1, 10 μM, vs controls)	viral genome replication (qPCR) (HSV-1 [2]; hTCEpi cells)	viral genome levels (qPCR) at high viral load (HSV-1 [2]; hTCEpi cells, MOI 5, 10 μM)	cytopathic effect (CPE) of HSV-1 (HSV-1 [3])	inhibition of infectious particle production (plaque assay) (HSV-1 [1]; MOI 0.1, KU-55933 10 μM, 20 hpi)	effect of addition on the dose-response curve of the partner drug (HSV-1 [2]; hTCEpi, MOI 0.1, KU-55933 0-7 μM with acyclovir 0-1.5 μg/mL, 16 hpi)	surface defects of explanted human corneas (human corneas)	survival and proliferation of cultured cells after treatment (hTCEpi cells; 2 full weeks following a 24-hour treatment)	clonal survival compared to mock-treated controls (hTCEpi cells; hTCEpi cells, KU-55933 10 μM continuously for 24 hours)	difference in blepharitis score versus control group (McKrae strain HSV-1)	stromal disease severity (stromal keratitis score) (McKrae strain HSV-1; started 24 hpi, every 4 hours for 1 day then every 8 hours)	stromal keratitis state by day 5 postinfection, on average (McKrae strain HSV-1; all control mice developed corneal perforation)
NC(=O)c1ccc2[nH]c(-c3ccc(Oc4ccc(Cl)cc4)cc3)nc2c1 [Chk2 inhibitor II, 2-(4-(4-chlorophenoxy)phenyl)-1H-benzimidazole-5-carboxamide]	reduction	profoundly reduced	reduced yet still substantial decrease	almost completely eliminated	–	–	–	–	–	–	–	–
O=c1cc(-c2cccc3c2Sc2ccccc2S3)oc(N2CCOCC2)c1 [KU-55933, 2-(morpholin-4-yl)-6-(thianthren-1-yl)-pyran-4-one]	–	sharp reduction	–	prevented	greater than 10,000 fold	shifted the acyclovir dose-response curve to the left	did not develop any surface defects	able to survive and proliferate well	roughly 70%	not statistically significant	notable and statistically significant reduction	only corneal opacity
